The target of test [1] is PI3 kinase alpha (Homo sapiens, UniProt P42336). Kind of test: PI3K ATP depletion assay (Biological Method 1, Assay 3; KinaseGlo luminescence). It counts as biochemical. The following applies: ATP depletion assay, Biological Method 1; read-out: PI3 Kinase Alpha, IC50. The gist of the method: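 Compound in DMSO was mixed with 10 nM PI3 kinase and 5 μg/mL phosphatidylinositol, and the reaction was started with 2 μM ATP. It ran to about 50% ATP depletion and was stopped with KinaseGlo.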
Sequence of PI3 kinase alpha (P42336 whole entry): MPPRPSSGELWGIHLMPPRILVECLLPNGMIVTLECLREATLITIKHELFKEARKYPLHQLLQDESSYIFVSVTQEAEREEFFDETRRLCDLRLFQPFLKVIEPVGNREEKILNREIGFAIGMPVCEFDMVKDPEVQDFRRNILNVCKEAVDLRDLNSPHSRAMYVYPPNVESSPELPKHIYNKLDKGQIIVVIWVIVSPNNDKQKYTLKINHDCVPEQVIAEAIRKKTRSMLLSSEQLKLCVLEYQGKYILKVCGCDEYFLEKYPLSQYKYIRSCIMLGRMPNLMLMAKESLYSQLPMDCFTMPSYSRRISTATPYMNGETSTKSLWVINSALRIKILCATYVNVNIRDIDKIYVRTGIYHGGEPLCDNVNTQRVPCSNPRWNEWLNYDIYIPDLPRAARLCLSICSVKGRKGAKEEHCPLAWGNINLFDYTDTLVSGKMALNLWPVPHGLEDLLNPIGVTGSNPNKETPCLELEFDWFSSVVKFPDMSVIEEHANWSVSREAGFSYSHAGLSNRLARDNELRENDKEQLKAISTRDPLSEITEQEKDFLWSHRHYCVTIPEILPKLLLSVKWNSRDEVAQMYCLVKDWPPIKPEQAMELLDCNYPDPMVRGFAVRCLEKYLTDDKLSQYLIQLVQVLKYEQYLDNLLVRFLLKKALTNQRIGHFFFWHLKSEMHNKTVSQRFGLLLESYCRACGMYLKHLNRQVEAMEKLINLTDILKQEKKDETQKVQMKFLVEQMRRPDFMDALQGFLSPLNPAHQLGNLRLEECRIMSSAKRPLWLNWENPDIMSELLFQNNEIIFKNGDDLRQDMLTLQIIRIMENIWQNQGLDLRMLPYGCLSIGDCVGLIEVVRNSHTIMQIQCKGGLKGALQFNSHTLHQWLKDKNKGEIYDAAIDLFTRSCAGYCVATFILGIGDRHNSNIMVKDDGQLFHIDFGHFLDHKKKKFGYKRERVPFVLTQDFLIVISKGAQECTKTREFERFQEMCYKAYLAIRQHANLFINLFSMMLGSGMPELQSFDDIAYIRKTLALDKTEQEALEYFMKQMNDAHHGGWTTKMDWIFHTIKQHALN
Sequence of PI3 kinase alpha (P27986 whole entry partner): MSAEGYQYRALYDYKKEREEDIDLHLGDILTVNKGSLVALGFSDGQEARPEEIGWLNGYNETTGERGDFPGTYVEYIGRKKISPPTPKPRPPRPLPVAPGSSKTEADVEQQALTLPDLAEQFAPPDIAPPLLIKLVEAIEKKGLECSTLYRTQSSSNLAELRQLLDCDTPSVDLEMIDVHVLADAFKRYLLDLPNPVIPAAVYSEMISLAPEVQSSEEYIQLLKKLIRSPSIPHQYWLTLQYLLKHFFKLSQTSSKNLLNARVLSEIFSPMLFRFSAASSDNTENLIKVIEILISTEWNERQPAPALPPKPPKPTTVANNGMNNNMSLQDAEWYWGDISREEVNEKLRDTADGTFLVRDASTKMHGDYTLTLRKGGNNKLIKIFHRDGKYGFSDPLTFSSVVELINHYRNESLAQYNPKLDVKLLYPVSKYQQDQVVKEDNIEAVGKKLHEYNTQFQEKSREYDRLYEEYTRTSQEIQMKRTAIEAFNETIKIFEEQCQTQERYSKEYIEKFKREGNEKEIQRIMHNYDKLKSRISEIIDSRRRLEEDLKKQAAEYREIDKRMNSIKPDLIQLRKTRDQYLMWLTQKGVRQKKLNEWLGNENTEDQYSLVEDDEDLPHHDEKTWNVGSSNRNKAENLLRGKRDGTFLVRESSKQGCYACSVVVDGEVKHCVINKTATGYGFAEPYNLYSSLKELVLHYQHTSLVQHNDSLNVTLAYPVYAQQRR
A general note: In Kinase-Glo more light means more ATP remaining.

Test [2] deals with A2780 ovarian cancer cells. As to the kind of experiment: Cellular proliferation in A2780 cells, Cell Titer Glo (Biological Method 4). The following applies: Homo sapiens; ovarian cancer cell line A2780, Biological Method 4. The format is cell-based. The gist of the method:
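A2780 cells seeded at 1,000/well in DMEM with 10% FBS, at least 2 h before compound, then exposed 72 h at 37 °C, 5% CO2. Viable cells measured by Cell Titer Glo luminescence; EC50 calculated from duplicate conditions.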

Experimental findings from US8217035B2, “Pyrimidine derivatives used as PI-3-kinase inhibitors” (Novartis AG, priority 2006, dated 2012) are described below.

On to `CN(C)C(=O)C1CN(c2cc(-c3cnc(N)cc3C(F)(F)F)nc(N3CCOCC3)n2)CCO1` (stereo not shown) [Compound 326], for which the IC50 in test [1] was below 1 µM. In addition, in test [2], the EC50 was below 25 µM.
For the compound `C[C@@H]1CN(c2cc(-c3cnc(N)cc3C(F)(F)F)nc(N3CCOCC3)n2)C[C@H](C)O1` [Compound 327], in test [1], the half-maximal inhibitory concentration (IC50) is below 1 µM. For the same compound, the EC50 in test [2] is below 10 µM.
The corresponding values for `Nc1cc(Cl)c(-c2cc(OC3CCOCC3)nc(N3CCOCC3)n2)cn1` [Compound 328] are below 1 µM and below 25 µM.
As to `Nc1cc(C(F)(F)F)c(-c2cc(N3CCOC(C(=O)NC4CCOCC4)C3)nc(N3CCOCC3)n2)cn1` (stereo not shown) [Compound 329], the half-inhibitory concentration (IC50) in test [1] is below 1 µM. This compound displayed an EC50 in test [2] below 25 µM.
For `CC(C)NC(=O)C1CN(c2cc(-c3cnc(N)cc3C(F)(F)F)nc(N3CCOCC3)n2)CCO1` (stereo not shown) [Compound 330], the IC50 in test [1] is below 1 µM. In test [2], this compound had an EC50 below 25 µM.
The corresponding values for `Nc1cc(C(F)(F)F)c(-c2cc(N3CCS(=O)(=O)CC3)nc(N3CCOCC3)n2)cn1` [Compound 331] are below 1 µM and below 25 µM.
On the same counts, the results for `Nc1cc(C(F)(F)F)c(-c2cc(N3CC[C@H](F)C3)nc(N3CCOCC3)n2)cn1` [Compound 332] are below 1 µM and below 1 µM.
Turning to `Nc1cc(C(F)(F)F)c(-c2cc(N3CCOC(C(=O)O)C3)nc(N3CCOCC3)n2)cn1` (stereo not shown) [Compound 333], in test [1], the IC50 is below 1 µM. In addition, the EC50 in test [2] is below 25 µM.
The corresponding values for `Nc1cc(C(F)(F)F)c(-c2cc(N3CCOC(c4ccc(C(F)(F)F)cc4)C3)nc(N3CCOCC3)n2)cn1` (stereo not shown) [Compound 334] are below 1 µM and below 10 µM.
On the same counts, the results for `Nc1cc(C(F)(F)F)c(-c2cc(N3CCOC(c4ccc(F)cc4)C3)nc(N3CCOCC3)n2)cn1` (stereo not shown) [Compound 335] are below 1 µM and below 10 µM.
Turning to `Nc1cc(C(F)(F)F)c(-c2cc(N3CCOC(c4ccc(Cl)cc4)C3)nc(N3CCOCC3)n2)cn1` (stereo not shown) [Compound 336], in test [1], the IC50 is below 1 µM. In test [2], this compound showed an EC50 below 10 µM.
Take `Nc1cc(C(F)(F)F)c(-c2cc(N3CCOC(c4ccccc4Cl)C3)nc(N3CCOCC3)n2)cn1` (stereo not shown) [Compound 337]: the 50% inhibitory concentration (IC50) in test [1] was below 1 µM. Also, the EC50 in test [2] is below 25 µM.
The corresponding values for `Nc1cc(C(F)(F)F)c(-c2cc(N3CCOC(c4cccnc4)C3)nc(N3CCOCC3)n2)cn1` (stereo not shown) [Compound 338] are below 1 µM and below 10 µM.
As to `N#Cc1cc(N)ncc1-c1cc(N2CCOC(c3ccccc3)C2)nc(N2CCOCC2)n1` (stereo not shown) [Compound 341], in test [1], the IC50 is below 1 µM. In test [2], this compound had an EC50 below 10 µM.
As to `Nc1cc(Cl)c(-c2cc(N3CCOC(c4ccccc4)C3)nc(N3CCOCC3)n2)cn1` (stereo not shown) [Compound 342], the IC50 in test [1] was below 1 µM. For the same compound, the EC50 in test [2] was below 10 µM.
The corresponding values for `Nc1ncc(-c2cc(N3CCOC(c4ccccc4)C3)nc(N3CCOCC3)n2)c(C(F)(F)F)n1` (stereo not shown) [Compound 343] are below 1 µM and below 25 µM.
For `Nc1cc(C(F)(F)F)c(-c2cc(N3CCOC(c4ccccc4)C3)nc(N3CCOCC3)n2)cn1` (stereo not shown) [Compound 344], the IC50 in test [1] was below 1 µM. Besides, the EC50 in test [2] was below 10 µM.
On the same counts, the results for `Nc1ccc(-c2cc(-n3ncc4cccc(N)c43)nc(N3CCOCC3)n2)cn1` [Compound 345] are below 1 µM and below 10 µM.
In the case of `Nc1ccc(-c2cc(Nc3cccc4[nH]ncc34)nc(N3CCOCC3)n2)cn1` [Compound 347], the IC50 in test [1] was below 1 µM. In test [2], the EC50 was below 10 µM.
Take `NC(=O)c1ccnc(Nc2cc(-c3ccc(N)nc3)nc(N3CCOCC3)n2)c1` [Compound 348]: the IC50 in test [1] was below 1 µM. The compound further came in with an EC50 in test [2] below 25 µM.
For the compound `Nc1ccc(-c2cc(Nc3cc(Cl)ccn3)nc(N3CCOCC3)n2)cn1` [Compound 349], in test [1], the IC50 was below 1 µM. For the same compound, the EC50 in test [2] is below 25 µM.
On the same counts, the results for `Nc1ccc(-c2cc(Nc3cc(C(F)(F)F)ccn3)nc(N3CCOCC3)n2)cn1` [Compound 350] are below 1 µM and below 25 µM.
On the same counts, the results for `Nc1ccc(-c2cc(Nc3cc(F)ccn3)nc(N3CCOCC3)n2)cn1` [Compound 351] are below 1 µM and below 25 µM.
On the same counts, the results for `NC(=O)c1ccccc1Nc1cc(-c2ccc(N)nc2)nc(N2CCOCC2)n1` [Compound 352] are below 1 µM and below 10 µM.
Regarding `CC(=O)N1CCc2ccc(Nc3cc(-c4ccc(N)nc4)nc(N4CCOCC4)n3)cc21` [Compound 356], the IC50 in test [1] was below 1 µM. For the same compound, the EC50 in test [2] is below 10 µM.
In the case of `Nc1ccc(-c2cc(Nc3ccc(-c4cnco4)cc3)nc(N3CCOCC3)n2)cn1` [Compound 357], the IC50 in test [1] was below 1 µM. For the same compound, in test [2], the EC50 is below 25 µM.
`Nc1ccc(-c2cc(Nc3ccc(S(=O)(=O)C(F)(F)F)cc3)nc(N3CCOCC3)n2)cn1` [Compound 358]: the IC50 in test [1] is below 1 µM. Besides, the EC50 in test [2] was below 10 µM.
As for `CC(=O)c1ccc(Nc2cc(-c3ccc(N)nc3)nc(N3CCOCC3)n2)cc1` [Compound 359], in test [1], the IC50 is below 1 µM. The EC50 in test [2] was below 1 µM.
As for `CC(=O)Nc1ccc(Nc2cc(-c3ccc(N)nc3)nc(N3CCOCC3)n2)cc1` [Compound 360], the IC50 in test [1] was below 1 µM. The EC50 in test [2] is below 10 µM.
On the same counts, the results for `CS(=O)(=O)Nc1cccc(Nc2cc(-c3ccc(N)nc3)nc(N3CCOCC3)n2)c1` [Compound 361] are below 1 µM and below 10 µM.
The corresponding values for `Nc1ccc(-c2cc(Nc3cccc(S(N)(=O)=O)c3)nc(N3CCOCC3)n2)cn1` [Compound 362] are below 1 µM and below 10 µM.
Turning to `CC(=O)Nc1cccc(Nc2cc(-c3ccc(N)nc3)nc(N3CCOCC3)n2)c1` [Compound 363], in test [1], the IC50 was below 1 µM. This compound also displayed an EC50 in test [2] below 10 µM.
On the same counts, the results for `Nc1ccc(-c2cc(Nc3cnc4ccc(O)cc4c3)nc(N3CCOCC3)n2)cn1` [Compound 367] are below 1 µM and below 10 µM.
On the same counts, the results for `CN(c1cc(-c2ccc(N)nc2)nc(N2CCOCC2)n1)C1CCOCC1` [Compound 368] are below 1 µM and below 10 µM.
On to `Nc1ccc(-c2cc(Cl)nc(N3CCOCC3)n2)cn1` [Compound 369], for which, in test [1], the IC50 is below 1 µM. In test [2], this compound returned an EC50 below 25 µM.
On the same counts, the results for `Nc1ccc(-c2cc(N3CCOC(c4ccccc4)C3)nc(N3CCOCC3)n2)cn1` (stereo not shown) [Compound 371] are below 1 µM and below 10 µM.
The corresponding values for `Nc1ccc(-c2cc(Nc3ccc4nccnc4c3)nc(N3CCOCC3)n2)cn1` [Compound 377] are below 1 µM and below 10 µM.
Take `Nc1ccc(-c2cc(Nc3cccnc3)nc(N3CCOCC3)n2)cn1` [Compound 378]: the IC50 in test [1] is below 1 µM. This compound returned an EC50 in test [2] below 10 µM.
With `Nc1ccc(-c2cc(Nc3ccnc4cc(C(F)(F)F)ccc34)nc(N3CCOCC3)n2)cn1` [Compound 380], the IC50 in test [1] is below 1 µM. In test [2], this compound displayed an EC50 below 10 µM.
The corresponding values for `Nc1ccc(-c2cc(Nc3ccnc4c(C(F)(F)F)cccc34)nc(N3CCOCC3)n2)cn1` [Compound 383] are below 1 µM and below 10 µM.
On the same counts, the results for `Nc1ccc(-c2cc(Nc3ccc4c(c3)OCC(=O)N4)nc(N3CCOCC3)n2)cn1` [Compound 384] are below 1 µM and below 10 µM.

One may read the IC50 as the concentration at which inhibition is half-maximal. By EC50 is commonly meant the concentration needed to bring the measured effect to its halfway point. Low values mean a more potent agent, high ones a less potent agent.
